The results in this text go back to patent US7244738B2, “Arylamine-substituted quinazolinone compounds useful as alpha 1A/B adrenergic receptor antagonists” (Roche Palo Alto LLC, priority 2003, dated 2007).

Counter-ions that a name gives are not always drawn.

For the compound `COc1cc2[nH]c(N(C)Cc3cccc(CN4CCC(OC)C4)c3)nc(=O)c2c(C)c1OC` (stereo not drawn) [Example 37, 6,7-Dimetrhoxy-2-{[3-(3-methoxy-pyrrolidin-1-ylmethyl)-benzyl]-methyl-amino}-5-methyl-1H-quinazolin-4-one], the melting point (as a rule, the temperature of the solid-liquid transition) fell in the range of 151.2 to 152.9 °C.

In turn, `COc1ccnc(N2CCN(c3nc(=O)c4c(OC)c(OC)c(OC)cc4[nH]3)CC2)c1` [Example 73, 5,6,7-Trimethoxy-2-[4-(4-methoxy-pyridin-2-yl)-piperazin-1-yl]-1H-quinazolin-4-one] displayed a melting point of 229 to 231 °C. On to `COc1ccc(CN(C)c2nc(=O)c3c(C)c(OC)c(OC)cc3[nH]2)cc1OCCN(C)CCO` [Example 16, 2-[(3-{2-[(2-Hydroxy-ethyl)-methyl-amino]-ethoxy}-4-methoxy-benzyl)-methyl-amino]-6,7-dimethoxy-5-methyl-1H-quinazolin-4-one], for which the melting point fell in the range of 144.8 to 146.2 °C. Consider `COc1cc2[nH]c(N(C)Cc3ccc(OCCCN(C)C)cc3)nc(=O)c2c(C)c1OC` (as salt: HCl) [Example 44, 2-{[4-(3-Dimethylamino-propoxy)-benzyl]-methyl-amino}-6,7-dimethoxy-5-methyl-1H-quinazolin-4-one], for which the melting point is 191 to 192.2 °C. `COc1cc2[nH]c(N(C)Cc3cccc(/N=C4/CCCN4C)c3)nc(=O)c2c(OC)c1OC` [Example 205, 5,6,7-Trimethoxy-2-(methyl-{3-[1-methyl-pyrrolidin-(2Z)-ylideneamino]-benzyl}-amino)-1H-quinazolin-4-one] yielded a melting point of 130 to 133 °C.

The compound `COc1cc2[nH]c(N(C)Cc3cccc(S(C)(=O)=O)c3)nc(=O)c2c(C)c1OC` [Example 128, 2-[(3-Methanesulfonyl-benzyl)-methyl-amino]-6,7-dimethoxy-5-methyl-1H-quinazolin-4-one] gave a melting point of 269.5 to 271.5 °C. The result for `COc1cc2[nH]c(N(C)Cc3ccc(N4CCCC4=O)cc3)nc(=O)c2c(OC)c1OC` [Example 12, 5,6,7-Trimethoxy-2-{methyl-[4-(2-oxo-pyrrolidin-1-yl)-benzyl]-amino}-1H-quinazolin-4-one] reads 195.9 to 197.4 °C.

`COCCOc1cccc(CN(C)c2nc(=O)c3c(OC)c(OC)c(OC)cc3[nH]2)c1` [Example F-11, 5,6,7-Trimethoxy-2-{[3-(2-methoxy-ethoxy)-benzyl]-methyl-amino}-1H-quinazolin-4-one] came in with a melting point of 144.8 to 145.9 °C. Consider `COc1cc2[nH]c(N(C)Cc3cccc(NCCO)c3)nc(=O)c2c(OC)c1OC` [Example G-16, 2-{[3-(2-Hydroxy-ethylamino)-benzyl]-methyl-amino}-5,6,7-trimethoxy-1H-quinazolin-4-one], for which the melting point was in the range of 60.5 to 61.4 °C. The result for `COc1cc2[nH]c(N(C)Cc3cccc(N4C=NC(C)(C)C4)c3)nc(=O)c2cc1OC` [Example 90, 2-{[3-(4,4-Dimethyl-4,5-dihydro-imidazol-1-yl)-benzyl]-methyl-amino}-6,7-dimethoxy-1H-quinazolin-4-one] reads 240 to 242 °C; that for `COc1cc2[nH]c(N(C)Cc3cccc(N=C4NCCN4)c3)nc(=O)c2c(C)c1OC` [Example G-38, 2-{[3-(Imidazolidin-2-ylideneamino)-benzyl]-methyl-amino}-6,7-dimethoxy-5-methyl-1H-quinazolin-4-one], 141.3 to 144.7 °C. The result for `COc1cc2[nH]c(N(C)Cc3cccc(N4CCCS4(=O)=O)c3)nc(=O)c2c(C)c1OC` [Example 252, 2-{[3-(1,1-Dioxo-1λ6-isothiazolidin-2-yl)-benzyl]-methyl-amino}-6,7-dimethoxy-5-methyl-1H-quinazolin-4-one] reads 226 to 228.5 °C. For `CCN1CCN(c2cccc(CN(C)c3nc(=O)c4c(C)c(OC)c(OC)cc4[nH]3)c2)C1=O` [Example 264, 2-{[3-(3-Ethyl-2-oxo-imidazolidin-1-yl)-benzyl]-methyl-amino}-6,7-dimethoxy-5-methyl-1H-quinaozlin-4-one], the melting point was in the range of 201.4 to 207.4 °C. Regarding `COCCOc1cccc(CN(C)c2nc(=O)c3c(C)c(OC)c(OC)cc3[nH]2)c1` [Example F-10, 6,7-Dimethoxy-2-{[3-(2-methoxy-ethoxy)-benzyl]-methyl-amino}-5-methyl-1H-quinazolin-4-one], the melting point is 144.8 to 145.9 °C. Consider `COc1cc2[nH]c(N(C)Cc3cccc(CN4CCC(O)CC4)c3)nc(=O)c2c(OC)c1OC` [Example 39, 2-{[3-(4-Hydroxy-piperidin-1-ylmethyl)-benzyl]-methyl-amino}-5,6,7-trimethoxy-1H-quinazolin-4-one], for which the melting point fell in the range of 97.5 to 104.7 °C. The value for `COc1cc2[nH]c(N(C)Cc3cccc(N4C(=O)CN(C)C4=O)c3)nc(=O)c2c(C)c1OC` [Example 60, 3-(3-{[(6,7-Dimethoxy-5-methyl-4-oxo-1,4-dihydro-quinazolin-2-yl)-methyl-amino]-methyl-}-phenyl)-1-methyl-imidazolidine-2,4-dione] was 209.3 to 210.8 °C. The result for `COc1cc2[nH]c(N(C)Cc3cccc(N(C)CCCO)c3)nc(=O)c2c(OC)c1OC` (as salt: HCl) [Example 187] reads 156 to 157.2 °C. Compound `COc1cc2[nH]c(N(C)Cc3cccc(NCCCO)c3)nc(=O)c2c(OC)c1OC` [Example G-18, 2-{[3-(3-Hydroxy-propylamino)-benzyl]-methyl-amino}-5,6,7-trimethoxy-1H-quinazolin-4-one] gave a melting point of 47 to 48.5 °C. The value for `CNC(=O)c1cccc(CN(C)c2nc(=O)c3c(C)c(OC)c(OC)cc3[nH]2)c1` [Example 136, 3-{[(6,7-Dimethoxy-5-methyl-44-oxo-1,4-dihydro-quinazolin-2-yl)-methyl-amino]-methyl}-N-methyl-benzamide] was 243.3 to 245.1 °C; that for `COCCN(C)Cc1cccc(CN(C)c2nc(=O)c3c(OC)c(OC)c(OC)cc3[nH]2)c1` (as salt: hydrochloride) [Example 117, 5,6,7-Trimethoxy-2-[(3-{[(2-methoxy-ethyl)-methyl-amino]-methyl}-benzyl)-methyl-amino]-1H-quinazolin-4-one] was 162.9 to 164.5 °C; that for `CNC(C)c1cccc(CN(C)c2nc(=O)c3c(C)c(OC)c(OC)cc3[nH]2)c1` (stereo not drawn) [Example 64, 6,7-Dimethoxy-5-methyl-2-{methyl[3-(1-methylamino-ethyl)-benzyl]-amino}-1H-quinazolin-4-one] was 161.6 to 164.1 °C. `COc1cc2[nH]c(N(C)Cc3cccc(/N=C/N(C)C)c3)nc(=O)c2c(C)c1OC` [Example 196] had a melting point of 185 to 186 °C. `COc1cc2[nH]c(N(C)Cc3cccc(N(C)S(=O)(=O)N(C)C)c3)nc(=O)c2c(C)c1OC` [Example 170, N-(3-{[(6,7-dimethoxy-5-methyl-4-oxo-1,4-dihydro-quinazolin-2-yl)-methyl-amino]-methyl}-phenyl)-N,N′,N′-trimethylsulfamide] had a melting point of 160 to 161.7 °C. The result for `COc1cc2[nH]c(N(C)Cc3cccc(C(C)N(C)C(=O)N(C)C)c3)nc(=O)c2c(C)c1OC` (stereo not drawn) [Example 4, 1-[1-(3-{[(6,7-Dimethoxy-5-methyl-4-oxo-1,4-dihydro-quinazolin-2-yl)-methyl-amino]-methyl}-phenyl)-ethyl]-1,3,3-trimethyl-urea] reads 125.9 to 128 °C; that for `COc1cc2[nH]c(N(C)Cc3cccc(CN(C)CCO)c3)nc(=O)c2c(C)c1OC` [Example 33, 2-[(3-{[(2-Hydroxy-ethyl)-methyl-amino]-methyl}-benzyl)-methyl-amino]-6,7-dimethoxy-5-methyl-1H-quinazolin-4-one], 123.8 to 125.6 °C; that for `COc1cc2[nH]c(N(C)Cc3ccc4c(c3)CN(C)C4)nc(=O)c2c(OC)c1OC` [Example 45, 5,6,7-Trimethoxy-2-[methyl-(2-methyl-2,3-dihydro-1H-isoindol-5-ylmethyl)-amino]-1H-quinazolin-4-one], 165.5 to 166.5 °C.

`COc1cc2[nH]c(N(C)C(C)c3cccc(NCCNC(C)=O)c3)nc(=O)c2c(C)c1OC` (stereo not drawn) [Example 191, N-[2-(3-{1-[(6,7-Dimethoxy-5-methyl-4-oxo-1,4-dihydro-quinazolin-2-yl)-methyl-amino]-ethyl}-phenylamino)-ethyl]-acetamide] displayed a melting point of 220.6 to 222.4 °C. The value for `CNCc1cccc(CNc2nc(=O)c3c(C)c(OC)c(OC)cc3[nH]2)c1` [Example 69, 6,7-Dimethoxy-5-methyl-2-(3-methylaminomethyl-benzylamino)-1H-quinazolin-4-one] was 142.5 to 142.9 °C; that for `COc1cc2[nH]c(N(C)Cc3cccc(N=C4CCCN4C)c3)nc(=O)c2c(OC)c1OC` [Example G-39, 5,6,7-Trimethoxy-2-{methyl-[3-(1-methyl-pyrrolidin-2-ylideneamino)-benzyl]-amino}-1H-quinazolin-4-one] was 130 to 133 °C; that for `COCCCNc1cccc(CN(C)c2nc(=O)c3c(OC)c(OC)c(OC)cc3[nH]2)c1` (as salt: HCl) [Example 188, 5,6,7-Trimethoxzy-2-{[3-(3-methoxy-propylamino)-benzyl]-methyl-amino}-1H-quinazolin-4-one] was 207 to 209.1 °C. The result for `COc1cc2[nH]c(N(C)Cc3cccc(/N=C(/C)N(C)C)c3)nc(=O)c2c(OC)c1OC` [Example 197, N,N-Dimethyl-N′-(3-{[methyl-(5,6,7-trimethoxy-4-oxo-1,4-dihydro-quinazolin-2-yl)-amino]-methyl}-phenyl)acetamidine] reads 199 to 201 °C; that for `COCCC(=Nc1cccc(CN(C)c2nc(=O)c3c(OC)c(OC)c(OC)cc3[nH]2)c1)N(C)C` [Example G-36, 3-Methoxy-N,N-dimethyl-N′-(3-{[methyl-(5,6,7-trimethoxy-4-oxo-1,4-dihydro-quinazolin-2-yl)-amino]-methyl}-phenyl)-propionamidine], 145 °C; that for `COc1cc2[nH]c(N(C)Cc3cccc(NC4=NCCC4)c3)nc(=O)c2c(C)c1OC` [Example G-42, 2-{[3-(4,5-Dihydro-3H-pyrrol-2-ylamino)-benzyl]-methyl-amino}-6,7-dimethoxy-5-methyl-1H-quinazolin-4-one], 175.4 to 177.2 °C.
